This note sets out measurements from US11518740B2, “Pleuromutilin (phenylthio)acetic acid ester with anti-drug resistant bacteria activity and a method of preparing the same” (SHAANXI UNIVERSITY OF SCIENCE AND TECHNOLOGY, priority 2021, dated 2022).

Holding throughout (format): cell-based
Experiment [1] has as its system multi-resistant Staphylococcus aureus 171. The experiment in a line: Paper diffusion method drug sensitivity test, MRSA-171. To be noted: for inhibitory effect (in words): multi-drug resistant Staphylococcus aureus 171, summary of FIGS. 1-3 and Table 1; for Zone of inhibition: strain MRSA-171, drug sensitive paper 30 μg/tablet, 37° C., 24 h. As to the method:
(§1) The antimicrobial efficacy was determined by a paper diffusion method drug sensitivity test.
(§2) Experimental strains: multi-resistant Staphylococcus aureus 171, multi-resistant Staphylococcus aureus 222, multi-resistant Staphylococcus aureus 596. The experimental strains were identified by Huashan Hospital Affiliated to Fudan University (Institute of Antibiotic of Fudan University).
(§3) Drug sensitive paper: The drug sensitive paper is a special drug sensitive paper with a diameter of 6.35 mm and a water absorption of 0.02 mL. The control drug was vancomycin (30 μg/tablet); the test drugs were pleuromutilin (phenylithio)acetic acid ester (30 μg/tablet).
(§4) Reagents: LB agar medium, LA broth medium, dichloromethane.
(§5) The experimental strains were inoculated in non-selective medium and placed in air at 37° C. for 24 h. Pick a single colony that grows well and inoculate it into broth medium, incubate at 35° C.±2° C. for 6 hours, and use LA broth medium to calibrate the concentration of the bacterial solution to 0.5 Mie turbidimetric tube (1.5×10^8 CFU/mL). A bacterial suspension is obtained.
(§6) The experimental strains were inoculated in non-selective medium and placed in air at 37° C. for 24 h. Pick a single colony that grows well and inoculate it into broth medium, incubate at 35° C.±2° C. for 6 hours, and use LA broth medium to calibrate the concentration of the bacterial solution to 0.5 Mie turbidimetric tube ([…]). A bacterial suspension is obtained.
(§7) LB dry powder was weighed, sterilized at 103.4 Kpa, 121.3° C. high-pressure steam for 15 min, and then placed it in a 40° C.-50° C. water bath. A sterile empty plate (inner diameter 9 cm) was placed on the surface of the ultra-clean table water table, and […] to the plate. The thickness of each plate was 3 mm to 4 mm. After the plate was cooled at room temperature, it was stored in the refrigerator at 2° C.-8° C. A sterile cotton swab was used to dip the bacterial solution and to evenly coat the surface of the LB plate 3 times. After inoculation of the bacterial suspension, the LB plate was dried at room temperature for 3 min to 5 min. Sterile forceps were used to closely attach the antibacterial drug paper to the dish. The dish was put upside down and placed in a 37° C. incubator for 24 h. The results were observed by measuring the diameter. Taking 0.5% DMSO solution as a negative control, the antibacterial activity is expressed by the diameter of the inhibition zone. The inhibition zone≥17 mm, sensitive; the inhibition zone of 15 mm-16 mm, intermediary; the inhibition zone≤14 mm, drug resistance.

For experiment [2], the system named is multi-resistant Staphylococcus aureus 222. The experiment in a line: Paper diffusion method drug sensitivity test, MRSA-222. The conditions noted are these: for inhibitory effect (in words): multi-drug resistant Staphylococcus aureus 222, summary of FIGS. 1-3 and Table 1; for Zone of inhibition: strain MRSA-222, drug sensitive paper 30 μg/tablet, 37° C., 24 h. The procedure:
as §1, §2, §3, §4, §5, §6, §7

Experiment [3] deals with multi-resistant Staphylococcus aureus 596. The experiment in a line: Paper diffusion method drug sensitivity test, MRSA-596. To be noted: for inhibitory effect (in words): multi-drug resistant Staphylococcus aureus 596, summary of FIGS. 1-3 and Table 1; for Zone of inhibition: strain MRSA-596, drug sensitive paper 30 μg/tablet, 37° C., 24 h. The procedure:
as §1, §2, §3, §4, §5, §6, §7

In the case of `C=C[C@]1(C)CC(OC(=O)COC(=O)CSc2ccccc2)[C@]2(C)[C@H](C)CC[C@]3(CCC(=O)[C@H]32)[C@@H](C)[C@@H]1O` (some centres unmarked), the “inhibitory effect (in words)” value in experiment [1], in experiment [2] and in experiment [3] was “strong inhibitory effects” throughout. For the same molecule, the Zone of inhibition stood at 15 mm in experiment [2] and 23 mm in experiment [3].
For `O=C(O)CSc1ccccc1` [(Phenylithio)acetic acid], the “inhibitory effect (in words)” value in experiment [1], in experiment [2] and in experiment [3] was “no inhibitory effect” throughout. Moreover, the Zone of inhibition in experiment [1], in experiment [2] and in experiment [3] was 0 mm in each case.
In the case of `C=C[C@]1(C)C[C@@H](OC(=O)CO)[C@]2(C)[C@H](C)CC[C@]3(CCC(=O)[C@H]32)[C@@H](C)[C@@H]1O` [Pleuromutilin], the “inhibitory effect (in words)” value in experiment [1], in experiment [2] and in experiment [3] was “no inhibitory effect” throughout. For the same molecule, the Zone of inhibition in experiment [1], in experiment [2] and in experiment [3] was 0 mm in each case.
Consider `CN[C@H](CC(C)C)C(=O)N[C@H]1C(=O)N[C@@H](CC(N)=O)C(=O)N[C@H]2C(=O)N[C@H]3C(=O)N[C@H](C(=O)N[C@H](C(=O)O)c4cc(O)cc(O)c4-c4cc3ccc4O)[C@H](O)c3ccc(c(Cl)c3)Oc3cc2cc(c3O[C@@H]2O[C@H](CO)[C@@H](O)[C@H](O)[C@H]2O[C@H]2C[C@](C)(N)[C@H](O)[C@H](C)O2)Oc2ccc(cc2Cl)[C@H]1O` [Vancomycin], for which the values for the Zone of inhibition in experiment [1], in experiment [2] and in experiment [3] were 17 mm, 18 mm and 21 mm, respectively.
